Laboratory results as given in patent US12110286B2, “Benzimidazolone derived inhibitors of BCL6” (Cancer Research Technology Limited, priority 2017, dated 2024).

Biological target: Trx-6×His-BCL6 (human BCL6 BTB domain covering amino-acid sequence 5-129) (Homo sapiens (Human), UniProt P41182)
Test: HTRF in vitro assay (BCL6 / BCOR-AF633 peptide)
Format: binding
Settings: for activity in the HTRF assay: result in words
Procedure: The % inhibition at each concentration was calculated by normalising FRET ratio to the appropriate high (DMSO with all reagents) and low (DMSO without BCL6) controls.

[1] = further generated data, 1 nM Trx-6×His-BCL6, 300 nM BCOR-AF633 peptide, 0.5 nM anti-6×His-Terbium cryptate
[2] = initially generated data, 10 nM Trx-6×His-BCL6, 300 nM BCOR-AF633 peptide, 1 nM anti-6×His-Terbium cryptate

activity in the HTRF assay	HTRF pIC50 [1]	HTRF pIC50 [2]	SMILES
–	5.65	–	Cn1c(=O)n(CCC(C)(C)O)c2cc(Nc3cc(Br)ncc3Cl)ccc21 [Example 22b, 5-((2-bromo-5-chloropyridin-4-yl)amino)-3-(3-hydroxy-3-methylbutyl)-1-methyl-1,3-dihydro-2H-benzo[d]imidazol-2-one]
–	5.97	–	CCC1(Cn2c(=O)n(C)c3ccc(Nc4nc(-n5ccc(C(F)(F)F)n5)ncc4Cl)cc32)CN(C)C(=O)O1 (stereo not shown) [Example 20m]
–	6.54	–	Cn1c(=O)n(CCC(C)(C)O)c2cc(Nc3nc(N4CCCC(CN5CCOCC5)C4)ncc3Cl)ccc21 (stereo not shown) [Example 42d, 5-((5-chloro-2-(3-(morpholinomethyl)piperidin-1-yl)pyrimidin-4-yl)amino)-3-(3-hydroxy-3-methylbutyl)-1-methyl-1,3-dihydro-2H-benzo[d]imidazol-2-one]
–	6.05	–	Cc1cc(-c2ncc(Cl)c(Nc3ccc4c(c3)n(CCC(C)(C)O)c(=O)n4C)n2)n(C)n1 [Example 23b]
–	5.87	–	C[C@@H]1C[C@H](C)CN(c2ncc(Cl)c(Nc3cc4c(cc3F)n(C)c(=O)n4CCC(C)(C)O)n2)C1.O=CO [Example 20q]
–	5.88	–	CCC1(Cn2c(=O)n(C)c3ccc(Nc4ccnc(Cl)c4C#N)cc32)CN(C)C(=O)O1 (stereo not shown) [Example 22e]
–	6.35	–	Cn1ccc(-c2ncc(Cl)c(Nc3ccc4c(c3)n(CCC(C)(C)O)c(=O)n4C)n2)n1 [Example 23a, 5-((5-chloro-2-(1-methyl-1H-pyrazol-3-yl)pyrimidin-4-yl)amino)-3-(3-hydroxy-3-methylbutyl)-1-methyl-1,3-dihydro-2H-benzo[d]imidazol-2-one]
–	5.93	–	Cn1c(=O)n(CCC(C)(C)O)c2cc(Nc3ccncc3Cl)ccc21 [Example 29e, 5-((3-chloropyridin-4-yl)amino)-3-(3-hydroxy-3-methylbutyl)-1-methyl-1,3-dihydro-2H-benzo[d]imidazol-2-one]
–	6.07	–	C[C@@H]1CN(C(=O)c2cc(Nc3ccc4c(c3)n(CCC(C)(C)O)c(=O)n4C)c(Cl)cn2)C[C@H](C)C1(F)F [Example 36f, 5-((5-chloro-2-((3S,5R)-4,4-difluoro-3,5-dimethylpiperidine-1-carbonyl)pyridin-4-yl)amino)-3-(3-hydroxy-3-methylbutyl)-1-methyl-1,3-dihydro-2H-benzo[d]imidazol-2-one]
–	6.38	–	Cc1ccn(-c2ncc(Cl)c(Nc3ccc4c(c3)n(CCC(C)(C)O)c(=O)n4C)n2)n1 [Example 16a, 5-((5-chloro-2-(3-methyl-1H-pyrazol-1-yl)pyrimidin-4-yl)amino)-3-(3-hydroxy-3-methylbutyl)-1-methyl-1,3-dihydro-2H-benzo[d]imidazol-2-one]
–	6.09	–	Cn1c(=O)n(CCC(C)(C)O)c2cc(Nc3nc(OCC(F)(F)F)ncc3Cl)ccc21 [Example 39a, 5-((5-Chloro-2-(2,2,2-trifluoroethoxy)pyrimidin-4-yl)amino)-3-(3-hydroxy-3-methylbutyl)-1-methyl-1,3-dihydro-2H-benzo[d]imidazol-2-one]
–	6.00	–	Cn1c(=O)n(CCC(C)(C)O)c2cc(Nc3nc(N4CCCC(c5ccccc5)C4)ncc3Cl)ccc21 (stereo not shown) [Example 35za, 5-((5-chloro-2-(3-phenylpiperidin-1-yl)pyrimidin-4-yl)amino)-3-(3-hydroxy-3-methylbutyl)-1-methyl-1,3-dihydro-2H-benzo[d]imidazol-2-one]
–	5.86	–	C#CCC(C)(O)CCn1c(=O)n(C)c2ccc(Nc3ccnc(Cl)c3C#N)cc21 (stereo not shown) [Example 27a, 2-chloro-4-((3-(3-hydroxy-3-methylhex-5-yn-1-yl)-1-methyl-2-oxo-2,3-dihydro-1H-benzo[d]imidazol-5-yl)amino)nicotinonitrile]
–	6.16	–	Cn1c(=O)n(CCC(C)(C)O)c2cc(Nc3nc(N4CC5CCC(C4)C5(F)F)ncc3Cl)ccc21 [Example 35s, 5-((5-chloro-2-(8,8-difluoro-3-azabicyclo[3.2.1]octan-3-yl)pyrimidin-4-yl)amino)-3-(3-hydroxy-3-methylbutyl)-1-methyl-1,3-dihydro-2H-benzo[d]imidazol-2-one]
–	5.53	–	CCOC(=O)/C=C/Cn1c(=O)n(CCC(C)(C)O)c2cc(Nc3nc(N4C[C@@H](C)C(F)(F)[C@@H](C)C4)ncc3Cl)ccc21 [Example 38a, ethyl(E)-4-(5-((5-chloro-2-((3S,5R)-4,4-difluoro-3,5-dimethylpiperidin-1-yl)pyrimidin-4-yl)amino)-3-(3-hydroxy-3-methylbutyl)-2-oxo-2,3-dihydro-1H-benzo[d]imidazol-1-yl)but-2-enoate]
–	5.70	–	Cn1c(=O)n(CCC(C)(O)C(F)(F)F)c2cc(Nc3ccnc(Cl)c3C#N)ccc21 (stereo not shown) [Example 27d, 2-chloro-4-((1-methyl-2-oxo-3-(4,4,4-trifluoro-3-hydroxy-3-methylbutyl)-2,3-dihydro-1H-benzo[d]imidazol-5-yl)amino)nicotinonitrile]
–	6.60	–	Cn1c(=O)n(CCC(C)(C)O)c2cc(Nc3nc(N4CCC(C#N)CC4)ncc3Cl)ccc21 [Example 42a, 1-(5-chloro-4-((3-(3-hydroxy-3-methylbutyl)-1-methyl-2-oxo-2,3-dihydro-1H-benzo[d]imidazol-5-yl)amino)pyrimidin-2-yl)piperidine-4-carbonitrile]
–	6.06	–	COC(Cn1c(=O)n(CCC(C)(C)O)c2cc(Nc3nc(N4C[C@@H](C)C(F)(F)[C@@H](C)C4)ncc3Cl)ccc21)OC [Example 41a, 5-((5-chloro-2-((3S,5R)-4,4-difluoro-3,5-dimethylpiperidin-1-yl)pyrimidin-4-yl)amino)-1-(2,2-dimethoxyethyl)-3-(3-hydroxy-3-methylbutyl)-1,3-dihydro-2H-benzo[d]imidazol-2-one]

Further lines, the molecule ahead of its results:

SMILES	activity in the HTRF assay	HTRF pIC50 [1]	HTRF pIC50 [2]
Cn1c(=O)n(CC(O)C(C)(C)C)c2cc(Nc3ccnc(Cl)c3C#N)ccc21 (stereo not shown) [2-chloro-4-((3-(2-hydroxy-3,3-dimethylbutyl)-1-methyl-2-oxo-2,3-dihydro-1H-benzo[d]imidazol-5-yl)amino)nicotinonitrile]	did not exhibit the desired activity	–	–
Cn1c(=O)n(CCC(C)(C)O)c2cc(Nc3ccnc(Cl)c3C(F)F)ccc21 [5-((2-chloro-3-(difluoromethyl)pyridin-4-yl)amino)-3-(3-hydroxy-3-methylbutyl)-1-methyl-1,3-dihydro-2H-benzo[d]imidazol-2-one]	did not exhibit the desired activity	–	–
Cn1c(=O)n(CCC(C)(C)O)c2cc(Nc3cc(Cl)ncc3C(F)F)ccc21 [5-((2-chloro-5-(difluoromethyl)pyridin-4-yl)amino)-3-(3-hydroxy-3-methylbutyl)-1-methyl-1,3-dihydro-2H-benzo[d]imidazol-2-one]	did not exhibit the desired activity	–	–
Cn1c(=O)n(C)c2cc(Nc3cc(C(F)(F)F)nc4ncnn34)ccc21 [1,3-dimethyl-5-((5-(trifluoromethyl)-[1,2,4]triazolo[1,5-a]pyrimidin-7-yl)amino)-1,3-dihydro-2H-benzo[d]imidazol-2-one]	did not exhibit the desired activity	–	–
Cc1cc(C)n(-c2nc(C)c(Cl)c(Nc3ccc4c(c3)n(CCC(C)(C)O)c(=O)n4C)n2)n1 [Example 15p]	–	5.82	–
COC(=O)c1cc(Nc2ccc3c(c2)n(CCC(C)C(=O)OC)c(=O)n3C)c(C#N)c(Cl)n1 (stereo not shown) [Example 2a, Methyl 6-chloro-5-cyano-4-[[3-(4-methoxy-3-methyl-4-oxo-butyl)-1-methyl-2-oxo-benzimidazol-5-yl]amino]pyridine-2-carboxylate]	–	6.18	6.41
C[C@@H](O)CCn1c(=O)n(C)c2ccc(Nc3cc(Cl)ncc3Cl)cc21 [Example 1m, 5-[(2,5-dichloro-4-pyridyl)amino]-3-[(3R)-3-hydroxybutyl]-1-methyl-benzimidazol-2-one]	–	5.47	5.62
Cn1c(=O)n(CC2CCNCC2)c2cc(Nc3ccnc(Cl)c3C#N)ccc21 [2-chloro-4-((1-methyl-2-oxo-3-(piperidin-4-ylmethyl)-2,3-dihydro-1H-benzo[d]imidazol-5-yl)amino)nicotinonitrile]	did not exhibit the desired activity	–	–
Cn1c(=O)n(C)c2cc(Nc3cc(C(=O)O)nc(Cl)c3C#N)ccc21 [Example 1c, 6-chloro-5-cyano-4-[(1,3-dimethyl-2-oxo-benzimidazol-5-yl)amino]pyridine-2-carboxylic acid]	–	6.08	6.05
CCOC(=O)c1cc(Nc2ccc3c(c2)n(CC[C@@H](C)O)c(=O)n3C)c(C#N)c(Cl)n1 [Example 2d, Ethyl 6-chloro-5-cyano-4-[[3-[(3R)-3-hydroxybutyl]-1-methyl-2-oxo-benzimidazol-5-yl]amino]pyridine-2-carboxylate]	–	5.87	6.17
CCN(CC)CCn1c(=O)n(C)c2ccc(Nc3ccnc(Cl)c3C#N)cc21 [2-chloro-4-((3-(2-(diethylamino)ethyl)-1-methyl-2-oxo-2,3-dihydro-1H-benzo[d]imidazol-5-yl)amino)nicotinonitrile]	did not exhibit the desired activity	–	–
Cn1c(=O)n(CC2(C#N)CCOCC2)c2cc(Nc3ccnc(Cl)c3C#N)ccc21 [2-chloro-4-((3-((4-cyanotetrahydro-2H-pyran-4-yl)methyl)-1-methyl-2-oxo-2,3-dihydro-1H-benzo[d]imidazol-5-yl)amino)nicotinonitrile]	did not exhibit the desired activity	–	–
COC(=O)C(C)CCn1c(=O)n(C)c2ccc(Nc3cc(-c4nc(C)no4)nc(Cl)c3C#N)cc21 (stereo not shown) [Example 5, Methyl 4-[6-[[2-chloro-3-cyano-6-(3-methyl-1,2,4-oxadiazol-5-yl)-4-pyridyl]amino]-3-methyl-2-oxo-benzimidazol-1-yl]-2-methyl-butanoate]	–	6.19	5.99
Cn1c(=O)n(CCC(C)(C)O)c2cc(Nc3nc(N4CCCCC4)ncc3Cl)ccc21 [Example 20d]	–	5.92	–
